For test [1], the target named is T1, Gamma-hydroxybutyrate receptor (Rattus norvegicus) (UniProt Q6RY99).
T1 sequence (whole entry): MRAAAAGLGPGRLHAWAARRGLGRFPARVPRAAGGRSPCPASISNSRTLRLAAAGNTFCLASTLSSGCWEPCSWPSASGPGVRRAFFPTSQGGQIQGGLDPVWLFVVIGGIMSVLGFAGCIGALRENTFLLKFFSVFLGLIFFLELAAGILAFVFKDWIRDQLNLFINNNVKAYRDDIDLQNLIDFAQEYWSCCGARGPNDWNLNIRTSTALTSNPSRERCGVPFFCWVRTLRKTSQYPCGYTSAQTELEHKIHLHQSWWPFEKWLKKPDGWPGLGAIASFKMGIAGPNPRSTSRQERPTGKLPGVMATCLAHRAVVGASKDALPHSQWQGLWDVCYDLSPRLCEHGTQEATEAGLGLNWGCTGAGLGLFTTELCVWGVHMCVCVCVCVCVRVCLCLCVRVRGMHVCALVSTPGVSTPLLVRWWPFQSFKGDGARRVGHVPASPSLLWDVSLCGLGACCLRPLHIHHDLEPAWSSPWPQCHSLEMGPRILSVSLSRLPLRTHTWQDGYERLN
The test is described as follows: Binding affinity to gamma-hydroxybutyrate binding site of gamma-hydroxybutyrate receptor in rat forebrain synaptic membranes at 100 uM. The format is cell membranes. The conditions noted are these: Membrane.

Test [2] deals with T1, Gamma-hydroxybutyrate receptor (Rattus norvegicus). The test is described as follows: Binding affinity to succinic acid binding site of gamma-hydroxybutyrate receptor in rat forebrain synaptic membranes at 100 uM. Particulars: Membrane. The format is cell membranes.
Test [3] addresses Calcium/calmodulin-dependent protein kinase type II subunit alpha (Rattus norvegicus, UniProt P11275). Kind of test: Displacement of [3H]GHB from gamma-hydroxybutyrate binding site of gamma-hydroxybutyrate receptor in rat forebrain synaptic membranes. It is filed as cell membranes, Membrane.
Test [4] has as its target T2, Gamma-hydroxybutyrate receptor (Rattus norvegicus, UniProt Q6RY99).
T2 sequence (Q6RY99 whole entry): T1 sequence (whole entry)
Kind of test: Displacement of [3H]SUC from succinic acid binding site of gamma-hydroxybutyrate receptor in rat forebrain synaptic membranes. (In a radioligand displacement assay an active substance lowers the binding of a labelled ligand.)

pIC50: −log10 of the molar value. Active and inactive are the calls of the source. The rule behind the calls is not given here.

Calcium/calmodulin-dependent protein kinase type II subunit alpha, sequence (P11275 whole entry): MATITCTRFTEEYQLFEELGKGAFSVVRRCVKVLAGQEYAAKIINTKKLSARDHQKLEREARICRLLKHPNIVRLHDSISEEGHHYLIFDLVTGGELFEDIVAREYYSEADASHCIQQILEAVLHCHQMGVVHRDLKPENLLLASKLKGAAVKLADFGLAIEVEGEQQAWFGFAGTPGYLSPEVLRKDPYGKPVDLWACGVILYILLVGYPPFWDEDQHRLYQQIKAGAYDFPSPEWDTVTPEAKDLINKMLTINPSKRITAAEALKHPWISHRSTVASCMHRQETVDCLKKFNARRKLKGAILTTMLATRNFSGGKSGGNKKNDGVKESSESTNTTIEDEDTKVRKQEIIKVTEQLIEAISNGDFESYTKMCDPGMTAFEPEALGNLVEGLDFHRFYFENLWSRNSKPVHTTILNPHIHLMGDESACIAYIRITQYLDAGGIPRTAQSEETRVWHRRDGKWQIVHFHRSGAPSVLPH

Take `COC(=O)[C@H]1C[C@H](O)CCN1`: the result in test [1] and in test [2] was inactive.

A word on the pIC50: it is the negative decadic logarithm of the IC50, by convention in mol/L. As to `O=C(O)/C=C1\CCCc2ccccc2C1O` (racemic), the pIC50 in test [3] was 6.05; in test [4], 6.30.

As for `O=C(O)[C@@H]1C[C@H](O)CCN1`, the result in test [1] and in test [2] was inactive.

As for `COC(=O)[C@@H]1C[C@H](O)CCN1`, the result in test [1] and in test [2] was inactive.

As for `O=C(O)/C=C1\CCCc2ccccc2[C@@H]1O`, the negative-log IC50 (pIC50) in test [3] is 6.10; in test [4] it was 6.40.

Regarding `O=C(O)[C@H]1C[C@@H](O)CCN1`, the Activity was 30% in test [1] and 26% in test [2].

Turning to `O=C(O)[C@H]1C[C@H](O)CCN1`, the outcome in test [1] and in test [2] was inactive.

With `O=C(O)/C=C1\CCCc2ccccc2[C@H]1O`, the negative logarithm of the IC50 (pIC50) was 4.03 in test [3] and 4.13 in test [4].

For the origin of these results see ChEMBL document CHEMBL1152142, “Validation of high-affinity binding sites for succinic acid through distinguishable binding of gamma-hydroxybutyric acid receptor-specific NCS 382 antipodes” (Bioorg Med Chem Lett, 2008).
